From ChEMBL document CHEMBL1140648, “Structure-activity relationships of bioisosteres of a carboxylic acid in a novel class of bacterial translation inhibitors” (2007)
In brackets after ≈: the same amount, converted by molar mass.

Legend:
Type in all cases: functional
[1] = test system: Staphylococcus aureus; test: Antibacterial activity against Staphylococcus aureus UC9218 in presence of 5% HSA
[2] = test system: Staphylococcus aureus; test: Antibacterial activity against Staphylococcus aureus UC9218 in presence of 10% HSA
[3] = test system: Staphylococcus aureus; test: Ratio of MIC for Staphylococcus aureus UC9218 in presence of 5% HSA to MIC for Staphylococcus aureus UC9218 in absence of HSA
[4] = test system: Staphylococcus aureus; test: Inhibition of transcription/translation in Staphylococcus aureus at 100 uM
[5] = test system: Staphylococcus aureus; test: Antibacterial activity against Staphylococcus aureus UC9218

| MIC [1] [µg/mL] | MIC [2] [µg/mL] | MIC [5] [µg/mL] | Compound | Ratio [3] | inhibition at 100 µM [4] [%] |
| --- | --- | --- | --- | --- | --- |
| 128 | > 128 | 8 (≈ 15.3 µM) | CN(c1ccc(Cl)cc1)S(=O)(=O)c1ccc(C(=O)Nc2ccc(Br)cc2C(=O)O)cc1 | 8 | 79 |
| > 128 | > 128 | 8 (≈ 14.2 µM) | CN(c1ccc(Cl)cc1)S(=O)(=O)c1ccc(C(=O)Nc2ccc(Br)cc2-c2noc(=O)[nH]2)cc1 | >8 | 98 |
| – | > 128 | 2 (≈ 3.55 µM) | CN(c1ccc(Cl)cc1)S(=O)(=O)c1ccc(C(=O)Nc2ccc(Br)cc2-c2n[nH]c(=O)o2)cc1 | – | 60 |
| – | – | > 128 | Cc1cc(Br)ccc1NC(=O)c1ccc(S(=O)(=O)N(C)c2ccc(Cl)cc2)cc1 | – | 12 |
| – | – | 16 (≈ 29.2 µM) | CN(c1ccc(Cl)cc1)S(=O)(=O)c1ccc(C(=O)Nc2ccc(Br)cc2-c2nnn[nH]2)cc1 | – | 96 |
| – | – | > 128 | CN(c1ccc(Cl)cc1)S(=O)(=O)c1ccc(C(=O)Nc2ccc(Br)cc2Br)cc1 | – | 6 |
| – | – | > 128 | CC(=O)c1cc(Br)ccc1NC(=O)c1ccc(S(=O)(=O)N(C)c2ccc(Cl)cc2)cc1 | – | 0 |
| – | – | > 128 | CN(c1ccc(Cl)cc1)S(=O)(=O)c1ccc(C(=O)Nc2ccc(Br)cc2[N+](=O)[O-])cc1 | – | 0 |

Second part, the molecule before the results:

| Compound | MIC [1] [µg/mL] | MIC [2] [µg/mL] | MIC [5] [µg/mL] | Ratio [3] | inhibition at 100 µM [4] [%] |
| --- | --- | --- | --- | --- | --- |
| CN(c1ccc(Cl)cc1)S(=O)(=O)c1ccc(C(=O)Nc2ccc(Br)cc2C(O)(C(F)(F)F)C(F)(F)F)cc1 | 64 | > 128 | 0.5 (≈ 0.774 µM) | 128 | 41 |
| CN(c1ccc(Cl)cc1)S(=O)(=O)c1ccc(C(=O)Nc2ccc(Br)cc2CO)cc1 | – | – | > 128 | – | 4 |
| CN(c1ccc(Cl)cc1)S(=O)(=O)c1ccc(C(=O)Nc2ccc(Br)cc2C(N)=O)cc1 | – | – | > 128 | – | 13 |
| CONC(=O)c1cc(Br)ccc1NC(=O)c1ccc(S(=O)(=O)N(C)c2ccc(Cl)cc2)cc1 | – | – | > 128 | – | 7 |
| CN(c1ccc(Cl)cc1)S(=O)(=O)c1ccc(C(=O)Nc2ccc(Br)cc2Cc2nnn[nH]2)cc1 | – | – | > 128 | – | 46 |
| CN(c1ccc(Cl)cc1)S(=O)(=O)c1ccc(C(=O)Nc2ccc(Br)cc2S(N)(=O)=O)cc1 | – | – | > 128 | – | 0 |
| CC(O)c1cc(Br)ccc1NC(=O)c1ccc(S(=O)(=O)N(C)c2ccc(Cl)cc2)cc1 (stereo unspecified) | – | – | > 128 | – | 7 |
| CN(c1ccc(Cl)cc1)S(=O)(=O)c1ccc(C(=O)Nc2ccc(Br)cc2NS(C)(=O)=O)cc1 | – | – | > 128 | – | 19 |
| CN(c1ccc(Cl)cc1)S(=O)(=O)c1ccc(C(=O)Nc2ccc(Br)cc2NS(=O)(=O)C(F)(F)F)cc1 | – | – | 32 (≈ 51 µM) | – | 72 |
| CN(c1ccc(Cl)cc1)S(=O)(=O)c1ccc(C(=O)Nc2ccc(Br)cc2)cc1 | – | – | > 128 | – | 11 |
| CN(c1ccc(Cl)cc1)S(=O)(=O)c1ccc(C(=O)Nc2ccc(Br)cc2C#N)cc1 | – | – | > 128 | – | 0 |
| CO[C@@H]1[C@@H](OC(N)=O)[C@@H](O)[C@H](Oc2ccc3c(O)c(NC(=O)c4ccc(O)c(CC=C(C)C)c4)c(=O)oc3c2C)OC1(C)C [NOVOBIOCIN] | 0.5 | 1 | > 0.125 | – | – |
